# Source: patent US6534035B1, “Methods of inhibiting clot formation” (President and Fellows of Harvard College, priority 1998, dated 2003)
# Peptide text beside a SMILES is read from it. * marks the point of attachment. Biotin = O=C1N[C@H]2[C@H](CS[C@H]2CCCCC(=O)*)N1
# Assays:
# [1] = molecular target: T1, factor XIIIa-mediated crosslinking of α2AP to fibrin (Homo sapiens, UniProt P00488); test: Inhibition of α2AP-fibrin crosslinking in plasma clots by α2AP polypeptide (immunoblot); type: biochemical
# T1 construct: from tissue; host or cells: human plasma clotted with thrombin and calcium
# T1 sequence (P00488 39-732 limits assumed): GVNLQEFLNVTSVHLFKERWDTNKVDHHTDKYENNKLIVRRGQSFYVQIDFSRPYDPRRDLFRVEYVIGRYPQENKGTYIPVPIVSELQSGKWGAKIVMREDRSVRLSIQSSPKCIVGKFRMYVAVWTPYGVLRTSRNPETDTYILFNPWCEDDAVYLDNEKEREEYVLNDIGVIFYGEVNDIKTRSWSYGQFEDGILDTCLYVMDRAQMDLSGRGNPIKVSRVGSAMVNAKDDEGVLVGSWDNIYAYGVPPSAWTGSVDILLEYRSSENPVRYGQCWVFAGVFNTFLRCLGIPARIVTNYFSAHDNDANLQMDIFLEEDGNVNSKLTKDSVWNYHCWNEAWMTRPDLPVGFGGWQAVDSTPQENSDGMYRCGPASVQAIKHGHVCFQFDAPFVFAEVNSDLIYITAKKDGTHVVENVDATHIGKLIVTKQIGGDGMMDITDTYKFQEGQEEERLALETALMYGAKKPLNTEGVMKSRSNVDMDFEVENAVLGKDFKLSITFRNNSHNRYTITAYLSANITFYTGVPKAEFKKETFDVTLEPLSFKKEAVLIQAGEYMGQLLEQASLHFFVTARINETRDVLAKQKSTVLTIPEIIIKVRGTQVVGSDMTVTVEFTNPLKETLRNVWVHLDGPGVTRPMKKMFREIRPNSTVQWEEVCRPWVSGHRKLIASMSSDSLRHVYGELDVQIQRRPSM
# Method: To inhibit the crosslinking of α2AP to fibrin, a polypeptide spanning the crosslinking site on the amino terminus of α2AP (SEQ ID NO:2) was synthesized. The purity of the polypeptide was analyzed by high performance liquid chromatography, and its composition was verified by amino acid analysis on a Waters Picotag system. The α2AP polypeptide was then solubilized in 20 mM Tris-HCl and the pH was adjusted to 7.0. Various concentrations of polypeptide (7.5 μl, 0-5 mM final) were mixed with 20 μl of plasma, 1.25 μl of calcium chloride (0.4 mM), and 1.25 μof thrombin (10.0 units/ml) and clotted for 90 minutes at 37° C. as described above. The clots were solubilized and analyzed by immunoblotting as described above.
# human plasma FXIII = molecular target: T2, human plasma FXIII (Homo sapiens, UniProt P00488); test: Crosslinking of α2AP13-24 into fibrin by plasma FXIII in FXIII-free fibrinogen; type: biochemical
# T2 construct: purchased American Diagnostica; host or cells: purified from human plasma
# T2 sequence (P00488 39-732 limits assumed): T1 sequence (P00488 39-732 limits assumed)
# Method: Fibrin clots (50 μl) were prepared in duplicate by mixing FXIII-free fibrinogen (2 mg/ml final), α2AP13-24 (SEQ ID NO:2; 0.5 mM final), CaCl2 (2 mM final), human plasma FXIII (100 nM/L final) and guinea pig tissue transglutaminase (100 nM/L final) and thrombin (1 U/ml final) and incubating at 37° C. for 2 hours. The crosslinking of α2AP13-24 was detected as described above.
compound,measurement,setting,value
"CC(C)C[C@H](NC(=O)[C@H](CC(C)C)NC(=O)[C@@H](NC(=O)[C@H](CC(C)C)NC(=O)[C@@H]1CCCN1C(=O)[C@H](CO)NC(=O)[C@@H](NC(=O)[C@H](CCC(N)=O)NC(=O)[C@H](CCC(=O)O)NC(=O)[C@H](CCC(N)=O)NC(=O)[C@@H](N)CC(N)=O)C(C)C)[C@@H](C)O)C(=O)N[C@@H](CCCCNC(=O)CCCC[C@@H]1SC[C@@H]2NC(=O)N[C@@H]21)C(=O)O [α2AP13-24, NQEQVSPLTLLK] (H-NQEQVSPLTLLK(Biotin)-OH)",α2AP-fibrin crosslinking,[1]; peptide concentrations of 1.5 mM and 3.0 mM,little α2AP crosslinking was visible
same,formation of fibrin γ-γ crosslinks,[1]; plasma clots formed with α2AP polypeptide,no apparent effect
same,peptide concentration giving progressively less α2AP-fibrin crosslinking,"[1]; plasma clots, 90 minutes at 37° C.",≥ 0.38 mM
same,crosslinking of peptide to fibrin,human plasma FXIII; equivalent amount of purified exogenous FXIIIa added to FXIIIa-deficient fibrinogen,significantly more crosslinking
same,crosslinking of peptide to fibrin,"human plasma FXIII; purified FXIIIa-deficient fibrinogen, no enzyme added","little, if any, significant crosslinking"
